{"source": "patent US5811073A", "about": "“Method for radioisotopic detection and localization of inflammation in a host” (President and Fellows of Harvard College, priority 1995, dated 1998)", "key": {"[1]": {"test_system": "bacterial (E. coli) inflammatory lesions (pus capsule)", "experiment": "Gamma camera imaging of rats with bacterial infection", "type": "in vivo", "set-up": "key to Figure of Merit (FOM), equation (1): FOM=(At-Ab)^2/(At+Ab), from total counts target vs background", "details": "for Figure of Merit (FOM), equation (1): 0.2 mCi ^67 Ga-citrate (n=3); for Figure of Merit (FOM), equation (1) / Pus Capsule to Contralateral Tissue (T/B) Ratio, gamma camera imaging: 1.5 mCi/rat ^123 IUdR (n=4); for Figure of Merit (FOM), equation (1) / Pus Capsule to Contralateral Tissue (T/B) Ratio, gamma camera imaging / Figure of Merit (FOM), equation (2): mean ± SD; for Pus Capsule to Contralateral Tissue (T/B) Ratio, gamma camera imaging: 0.2 mCi/rat ^67 Ga (n=3); for Figure of Merit (FOM), equation (2): n=3 (^67 Ga), n=4 (^123 IUdR)", "method": "(§1) A frozen sample of E. coli bacteria (clinical isolate; ATCC 9339) was used to inoculate a 10 ml trypticase soy medium (trypticase soy broth, BBL #11768, 30 g/L water), and the tube was incubated overnight at […] This culture was used to grow single colonies by streaking the sample on agar plates (100 mm petri dishes each containing 15 ml of […] in the same medium). Good colonies develop in 10-11 hours at 37° C. The agar plates containing bacterial colonies were stored upside down at 4° C. A single colony of bacteria from the agar plate was used to inoculate 10 ml trypticase soy medium, and the tube was incubated overnight at 37° C. with vigorous shaking. Two ml of this overnight culture was transferred into 100 ml trypticase soy medium and the sample incubated at 37° C. with vigorous shaking until the culture reached an OD600 of ~0.8 (in about 2 hrs). This 100 ml culture contained ~6.4×10^10 bacterial cells (1 OD600 =8×10^8 cells/ml).\n(§2) The culture was centrifuged at 5500 rpm for 5 min at 4° C. in a Sorvall SS-34 rotor, the bacterial pellet resuspended in saline to give ~2.5×10^9 bacteria/ml, and 0.1 ml of resuspended cells injected into the left thigh muscle of each anesthetized rat.\n(§3) A further set of rats prepared as described in Examples 1 and 2 received intravenous injections of either ^123 IUdR (at a dose of about 1.5 mCi/rat) or gallium-67 citrate (at a dose of about 0.2 mCi/rat). After 1, 3 and 24 hours, rats from each group were anesthetized and imaged using a gamma camera (the General Electric STARCAM™ 400 fitted with parallel hole medium collimator). Anterior images were obtained 10^6 counts/frame except for the 24 h period for ^123 IUdR where a 15 min scan was carried out. A 20% window was present over the 159 keV photopeaks of ^67 Ga (93 kev, 184 keV, and 298 keV).\n(§4) Regions of interest (ROI) were drawn over the inflamed areas (3×4 pixel) and over the contralateral area in each rat. Total counts in these regions were used to calculate Target to Background (T/B) ratios and to calculate Figure of Merit (FOM; statistical significance) values using either of the following equations:\n(§5) FOM=(At -Ab)^2 /(At +Ab) (1)\n(§6) At =counts in ROI (3×4) over pus capsule; and\n(§7) Ab =counts in ROI (3×4) over contralateral muscle.\n(§8) Equation (1) is derived from the Report of the National Council on Radiation Protection and Measurements, Nuclear Medicine, \"Factors Influencing the Choice and Use of Radionuclides in Diagnosis and Therapy\", Report No. 70, p.79 (NRCP, Bethesda, Md., 1982). Equation (2) is derived from Rubin et al., J. Nucl. Med. 30:385-389, 1989. For purposes of reference, the disclosures of each of these publications is incorporated herein."}, "[2]": {"test_system": "sterile inflammatory lesions (pus capsule; turpentine oil)", "experiment": "Gamma camera imaging of rats with sterile inflammation", "type": "in vivo, Male Sprague-Dawley rats", "details": "for Figure of Merit (FOM), equation (1): 0.2 mCi ^67 Ga-citrate; for Figure of Merit (FOM), equation (1) / Pus Capsule to Contralateral Tissue (T/B) Ratio, gamma camera imaging: 1.5 mCi/rat ^123 IUdR; for Figure of Merit (FOM), equation (1) / Pus Capsule to Contralateral Tissue (T/B) Ratio, gamma camera imaging / Figure of Merit (FOM), equation (2): n=4, mean ± SD; for Pus Capsule to Contralateral Tissue (T/B) Ratio, gamma camera imaging: 0.2 mCi/rat ^67 Ga", "method": "Male Sprague-Dawley rats weighing between 150-200g were obtained from the Charles River Breeding Laboratories in Burlington, Mass. […] To anaesthetize the animals during testing, ketamine (40 mg/kg) and xylazine (10 mg/kg) were administered intra peritoneally (1.0 ml/kg) prior to surgical procedures. For the imaging studies, each animal received 1.5 ml/kg of a mixture of ketamine (75 mg/kg), xylazine (39 mg/kg) and acepromazine (0.75 mg/kg).\nTo induce a localized sterile inflammation, 0.1 ml of turpentine oil (Rectified Turpentine Oil for medical use, Gentry Corporation, Fair Lawn, N.J.) was injected into the left thigh muscle of anesthetized rats.\nas §3, §4, §5, §6, §7, §8"}, "[3]": {"test_system": "bacterial (E. coli) inflammatory lesions (pus capsule)", "experiment": "Biodistribution (pus capsule to contralateral tissue ratio) in rats with bacterial infection", "type": "in vivo", "method": "as §1, §2\nNo-carrier added radioiodinated deoxyuridine (^125 IUdR) was synthesized by the method described in the above disclosure. Commercially available gallium-67 citrate of known biodistribution characteristics was obtained, for comparison to ^125 IUdR. 24 hrs after each rat described in Example 2 received an intramuscular injection of E. coli or after each rat described in Example 1 received an intramuscular injection of turpentine oil (to permit comparison of activity in a bacterial inflammation lesions to activity in a sterile inflammation lesions) in the left rear thigh, each rat received either ^125 IUdR (about 5 μCi/rat) or gallium-67 citrate (about 10 μCi/rat) suspended in 0.1 ml saline, by injection into the tail vein.\nAt one, three and 24 hrs after ^125 IUdR or gallium-67 citrate administration, the animals from each group were anesthetized, blood collected via cardiac puncture, urine aspirated from the urinary bladder, and the rats humanely sacrificed. The biodistribution of each radiopharmaceutical (measured as a function of the % injected dose/gram body weight) was then determined in various normal tissues and organs, as well as the left and right legs, the pus capsule formed within the leg and in contralateral muscle tissues (i.e., background tissues unaffected by inflammation) of equivalent weight.\nTo determine the distribution of each radiopharmaceutical in various tissues of each rat (i.e., the \"biodistribution\" of each radiopharmaceutical), samples of background tissues and organs (blood, lung, liver, spleen, kidney, muscle and intestine), of target tissue (the pus capsule formed in the leg) and of contralateral muscle tissue (background tissue adjacent to target tissue) were obtained from each rat and weighed. Radioactivity in each sample was measured in a well-type gamma counter (from LKB, Wallac Oy, Finland). To correct for radioactive decay and permit calculation of activity in each organ or tissue as a fraction of the injected dosage of radiopharmaceutical, aliquots of the injected doses were counted at the same time that radioactivity in each sample was determined. The results were measured as a function of the percentage of injected dose/gram (% ID/g). For further reference regarding measurements of biodistribution of radiopharmaceuticals, particularly in blood, those of ordinary skill in the art may wish to refer to Baker et al., \"The Laboratory Rat\" (Acad.Press N.Y., 1980).\nAb = %ID/g over contralateral muscle"}, "[4]": {"test_system": "sterile inflammatory lesions (pus capsule; turpentine oil)", "experiment": "Biodistribution (pus capsule to contralateral tissue ratio) in rats with sterile inflammation"}}, "data": [{"smiles": "O=c1[nH]c(=O)n([C@H]2C[C@H](O)[C@@H](CO)O2)cc1[123I]", "note": "[^123 IUdR]", "values": [{"measurement": "detection of the lesion in scintigraphic images (in words)", "setting": "[1]; 1, 3, and 24 h, i.v.", "result": "can clearly detect the lesion"}, {"measurement": "radioscintigraphic detection by FOM, comparison of agents (in words)", "setting": "[1]; 1 h, 3 hrs, and 24 hrs", "result": "superior agent"}, {"measurement": "radioscintigraphic detection by imaging T/B ratio, comparison of agents (in words)", "setting": "[1]; 1 h, 3 hrs, and 24 hrs", "result": "superior to gallium-67"}, {"measurement": "Figure of Merit (FOM), equation (1)", "setting": "[1]; 1 h, i.v.", "result": "1770 ± 598"}, {"measurement": "Pus Capsule to Contralateral Tissue (T/B) Ratio, gamma camera imaging", "setting": "[1]; 1 h, i.v.", "result": "3.72 ± 1.06"}, {"measurement": "Figure of Merit (FOM), equation (2)", "setting": "[1]; 1 h, i.v.", "result": "2.72 ± 0.53"}, {"measurement": "Figure of Merit (FOM), equation (1)", "setting": "[1]; 3 h, i.v.", "result": "1507 ± 775"}, {"measurement": "Pus Capsule to Contralateral Tissue (T/B) Ratio, gamma camera imaging", "setting": "[1]; 3 h, i.v.", "result": "3.53 ± 0.80"}, {"measurement": "Figure of Merit (FOM), equation (2)", "setting": "[1]; 3 h, i.v.", "result": "2.53 ± 0.40"}, {"measurement": "Figure of Merit (FOM), equation (1)", "setting": "[1]; 24 h, i.v.", "result": "214 + 135"}, {"measurement": "Pus Capsule to Contralateral Tissue (T/B) Ratio, gamma camera imaging", "setting": "[1]; 24 h, i.v.", "result": "5.35 ± 2.37"}, {"measurement": "Figure of Merit (FOM), equation (2)", "setting": "[1]; 24 h, i.v.", "result": "4.35 ± 1.19"}, {"measurement": "detection of the lesion in scintigraphic images (in words)", "setting": "[2]; 1, 3, and 24 h, i.v.", "result": "can clearly detect the lesion"}, {"measurement": "Figure of Merit (FOM), equation (1)", "setting": "[2]; 1 h, i.v.", "result": "14444 ± 559"}, {"measurement": "Pus Capsule to Contralateral Tissue (T/B) Ratio, gamma camera imaging", "setting": "[2]; 1 h, i.v.", "result": "4.13 ± 1.06"}, {"measurement": "Figure of Merit (FOM), equation (2)", "setting": "[2]; 1 h, i.v.", "result": "3.13 ± 0.53"}, {"measurement": "Figure of Merit (FOM), equation (1)", "setting": "[2]; 3 h, i.v.", "result": "750 + 268"}, {"measurement": "Pus Capsule to Contralateral Tissue (T/B) Ratio, gamma camera imaging", "setting": "[2]; 3 h, i.v.", "result": "3.33 ± 0.92"}, {"measurement": "Figure of Merit (FOM), equation (2)", "setting": "[2]; 3 h, i.v.", "result": "2.33 ± 0.46"}, {"measurement": "efficacy by imaging T/B ratio, comparison of agents (in words)", "setting": "[2]; 3 hrs", "result": "equal"}, {"measurement": "Figure of Merit (FOM), equation (1)", "setting": "[2]; 24 h, i.v.", "result": "69 + 52"}, {"measurement": "Pus Capsule to Contralateral Tissue (T/B) Ratio, gamma camera imaging", "setting": "[2]; 24 h, i.v.", "result": "3.07 ± 0.930"}, {"measurement": "Figure of Merit (FOM), equation (2)", "setting": "[2]; 24 h, i.v.", "result": "2.07 ± 1.46"}, {"measurement": "accumulation in target tissues, rate vs gallium-67 citrate (in words)", "setting": "[2]; FIGS. 4 and 8 vs FIGS. 3 and 7", "result": "more quickly than did gallium-67 citrate"}, {"measurement": "radioscintigraphic detection by FOM, comparison of agents (in words)", "setting": "[2]; early (i.e., 1 h)", "result": "superior agent"}, {"measurement": "radioscintigraphic detection by imaging T/B ratio, comparison of agents (in words)", "setting": "[2]; early (i.e., 1 h)", "result": "superior to gallium-67"}]}, {"smiles": "O=c1[nH]c(=O)n([C@H]2C[C@H](O)[C@@H](CO)O2)cc1[125I]", "note": "[^125 IUdR]", "values": [{"measurement": "radioscintigraphic detection by biodistribution T/B ratios, compared with ^67 Ga (in words)", "setting": "[3]; bacterial infection, 1 h, 3 h, and 24 h", "result": "better"}, {"measurement": "concentration within lesion (pus capsule) vs contralateral tissues (in words)", "setting": "[3]; rat, in vivo", "result": "to a greater extent than in the contralateral tissues"}, {"measurement": "time of accumulation in target (inflamed) tissues", "setting": "[3]; rat, in vivo", "result": "≤ 1", "unit": "h"}, {"measurement": "concentration within lesion (pus capsule) vs contralateral tissues (in words)", "setting": "[4]; sterile inflammation (turpentine oil)", "result": "to a greater extent than in the contralateral tissues"}, {"measurement": "radioscintigraphic detection by biodistribution T/B ratios, compared with ^67 Ga (in words)", "setting": "[4]; sterile inflammation, 3 h and 24 h", "result": "much better than ^67 Ga"}]}]}
